Calls of active or inactive are those of the source.
What was measured:
[1] = antiviral protection against BTV-induced cell death – arbovirus, BSR cells, confirmation (AID 1250); format: functional;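 also: protection from viral cytopathic effect measured as cell viability by ATP luminescence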
[2] = molecular target: Luciferin 4-monooxygenase (Photinus pyralis, UniProt P08659); assay: Counter Screen for Luciferase-based Assay Positives. [Related pubchem assays: 620, 618, 411 ]
HT-1080 = assay: HT1080 cell viability loss – fluorescence readout (AID 620); format: functional, cell-based; conditions: Homo sapiens
[3] = molecular target: T1, Neuropeptide Y receptor type 1 (Homo sapiens, UniProt P25929); format: functional;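 also: HEK293 cells with a CNG channel challenged with NPY then isoproterenol; potency as antagonist that reverses NPY suppression of cAMP signal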
T1 sequence (P25929 whole entry): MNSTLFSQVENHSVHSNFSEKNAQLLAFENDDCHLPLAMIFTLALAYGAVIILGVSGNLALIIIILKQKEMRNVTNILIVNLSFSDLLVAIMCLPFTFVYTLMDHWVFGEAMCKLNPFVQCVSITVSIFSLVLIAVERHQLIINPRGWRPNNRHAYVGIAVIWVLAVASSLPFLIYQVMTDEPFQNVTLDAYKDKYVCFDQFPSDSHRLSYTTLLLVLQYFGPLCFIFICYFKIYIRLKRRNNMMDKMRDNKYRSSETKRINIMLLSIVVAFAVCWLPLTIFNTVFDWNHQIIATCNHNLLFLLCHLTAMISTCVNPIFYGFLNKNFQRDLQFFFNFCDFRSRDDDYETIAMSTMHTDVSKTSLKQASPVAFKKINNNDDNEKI

[4] = molecular target: T2, Neuropeptide Y receptor type 2 (Homo sapiens, UniProt P49146); format: functional, cell-based;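 also: HEK293 cells expressing the receptor and a CNG channel; stimulus was NPY near EC95 followed by isoproterenol to raise cAMP; antagonist potency measured as restoring cAMP signal that NPY suppresses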
T2 sequence (P49146 whole entry): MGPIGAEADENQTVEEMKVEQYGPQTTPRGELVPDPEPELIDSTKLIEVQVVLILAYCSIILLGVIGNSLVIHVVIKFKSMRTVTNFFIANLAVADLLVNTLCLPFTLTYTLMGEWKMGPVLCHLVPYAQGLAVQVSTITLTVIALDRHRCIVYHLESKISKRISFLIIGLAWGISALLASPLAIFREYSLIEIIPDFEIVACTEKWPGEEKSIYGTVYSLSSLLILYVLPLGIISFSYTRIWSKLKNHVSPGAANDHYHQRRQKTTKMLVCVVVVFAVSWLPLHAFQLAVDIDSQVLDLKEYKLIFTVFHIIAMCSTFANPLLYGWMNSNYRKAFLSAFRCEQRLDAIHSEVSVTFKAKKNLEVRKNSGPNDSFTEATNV

[5] = molecular target: Mitogen-activated protein kinase 10 (Homo sapiens, UniProt P53779); assay: Dose response biochemical screening assay for inhibitors of c-Jun N-Terminal Kinase 3 (JNK3). [Related pubchem assays: 746 ]
NS3 = NS3 (Hepatitis C virus, UniProt A3EZJ3); assay: PubChem AID 2173; design: species or system Hepacivirus hominis
[6] = A Cell Based Secondary Assay To Explore Cytotoxicity of Compounds that Sensitize Mycobacterium Tuberculosis to Beta-Lactam Antibiotics.; format: functional
Vero = assay: inhibition of WNV-induced cytopathic effect – cell-based, CPE readout (AID 1621); format: functional; conditions: Chlorocebus sabaeus
[7] = molecular target: Glyceraldehyde-3-phosphate dehydrogenase (Homo sapiens, UniProt P04406)
[8] = molecular target: Heat shock cognate 71 kDa protein (Homo sapiens, UniProt P11142); assay: In Vitro Hsc70 Dose Response Fluorescence Polarization Assay. [Related pubchem assays: 1072 ]
[9] = molecular target: Heat shock 70 kDa protein 1A (Homo sapiens, UniProt P0DMV8); assay: inhibition of Hsp70 binding activity – biochemical, fluorescence polarization, SAR follow-up (AID 1072)
[10] = molecular target: T3, Alkaline phosphatase, tissue-nonspecific isozyme (Homo sapiens, UniProt P05186); assay: potency against alkaline phosphatase TNAP – biochemical, luminescent, dose response, SAR follow-up (AID 1056)
T3 sequence (P05186 whole entry): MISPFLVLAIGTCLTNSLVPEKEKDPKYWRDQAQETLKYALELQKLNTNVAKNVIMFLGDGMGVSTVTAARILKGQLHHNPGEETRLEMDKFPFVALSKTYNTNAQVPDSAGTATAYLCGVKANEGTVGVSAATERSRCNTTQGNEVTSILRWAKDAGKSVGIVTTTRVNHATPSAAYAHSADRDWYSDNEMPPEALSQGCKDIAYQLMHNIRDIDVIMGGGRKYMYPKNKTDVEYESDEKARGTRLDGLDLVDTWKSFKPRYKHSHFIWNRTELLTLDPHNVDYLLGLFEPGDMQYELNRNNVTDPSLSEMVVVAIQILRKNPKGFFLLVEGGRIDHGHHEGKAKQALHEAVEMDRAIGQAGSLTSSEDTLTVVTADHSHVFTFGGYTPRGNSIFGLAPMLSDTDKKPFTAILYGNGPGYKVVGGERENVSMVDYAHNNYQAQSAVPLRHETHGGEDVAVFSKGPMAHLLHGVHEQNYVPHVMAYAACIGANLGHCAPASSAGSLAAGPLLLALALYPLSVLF

[11] = molecular target: Peroxisome proliferator-activated receptor gamma/Nuclear receptor coactivator 2 (Homo sapiens, UniProt P37231); format: functional;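 also: agonist potency for raising coactivator recruitment to the receptor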
[12] = molecular target: Peroxisome proliferator-activated receptor gamma/Nuclear receptor coactivator 1 (Homo sapiens, UniProt P37231); format: functional;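 also: agonist potency as compounds enhance coactivator SRC-1 recruitment to PPARgamma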
[13] = molecular target: Peroxisome proliferator-activated receptor gamma/Nuclear receptor coactivator 3 (Homo sapiens, UniProt P37231); format: functional;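 also: agonist potency for raising coactivator recruitment to the receptor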
[14] = molecular target: T4, Ubiquitin-conjugating enzyme E2 N (Homo sapiens, UniProt P61088); format: functional;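 also: Dose-response confirmation in a TR-FRET assay detecting UBC13-driven polyubiquitin chain formation, inhibition measured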
T4 sequence (P61088 whole entry): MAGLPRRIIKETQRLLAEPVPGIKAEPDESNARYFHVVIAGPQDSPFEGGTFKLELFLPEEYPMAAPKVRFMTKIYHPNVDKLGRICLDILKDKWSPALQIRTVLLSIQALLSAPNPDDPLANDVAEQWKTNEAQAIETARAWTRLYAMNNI

[15] = viability of PTEN-deleted HCT116 cells – cell-based, HCT116 PTEN knockout, dose response (AID 1047); format: functional;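 also: HCT116 colon tumor cells with PTEN knocked out; cells exposed to compound for 60 hours before readout; potency for loss of cell viability measured by luminescence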
[16] = molecular target: Protein-tyrosine kinase 2-beta (Homo sapiens, UniProt Q14289);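 also: potency of inhibitors of PYK2 kinase phosphorylation of poly-GT substrate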
[17] = viability of HCT116 lacking mutant beta-catenin – cell-based, human colon tumor, dose response (AID 1045); format: functional;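 also: HCT116 colon tumor cells with beta catenin knocked out; cells exposed to compound for 60 hours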
[18] = molecular target: Heat shock protein HSP 90-alpha (Homo sapiens, UniProt P07900); format: functional, organism-based
[19] = molecular target: G-protein coupled receptor 55 (Homo sapiens, UniProt Q9Y2T6); assay: selective activators of receptor GPR55 – imaging, U2OS cells, beta-arrestin-GFP redistribution, primary screen (AID 1961); format: functional
Sequence of G-protein coupled receptor 55 (Q9Y2T6 whole entry): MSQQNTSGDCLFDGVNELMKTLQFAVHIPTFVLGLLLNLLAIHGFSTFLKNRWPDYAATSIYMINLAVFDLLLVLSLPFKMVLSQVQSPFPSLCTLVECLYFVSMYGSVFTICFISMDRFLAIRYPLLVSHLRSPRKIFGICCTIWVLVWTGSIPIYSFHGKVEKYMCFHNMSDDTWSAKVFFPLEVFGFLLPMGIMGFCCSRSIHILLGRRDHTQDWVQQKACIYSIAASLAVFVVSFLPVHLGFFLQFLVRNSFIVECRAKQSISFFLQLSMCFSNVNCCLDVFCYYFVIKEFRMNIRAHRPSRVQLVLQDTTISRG

Sequence of Luciferin 4-monooxygenase (P08659 whole entry): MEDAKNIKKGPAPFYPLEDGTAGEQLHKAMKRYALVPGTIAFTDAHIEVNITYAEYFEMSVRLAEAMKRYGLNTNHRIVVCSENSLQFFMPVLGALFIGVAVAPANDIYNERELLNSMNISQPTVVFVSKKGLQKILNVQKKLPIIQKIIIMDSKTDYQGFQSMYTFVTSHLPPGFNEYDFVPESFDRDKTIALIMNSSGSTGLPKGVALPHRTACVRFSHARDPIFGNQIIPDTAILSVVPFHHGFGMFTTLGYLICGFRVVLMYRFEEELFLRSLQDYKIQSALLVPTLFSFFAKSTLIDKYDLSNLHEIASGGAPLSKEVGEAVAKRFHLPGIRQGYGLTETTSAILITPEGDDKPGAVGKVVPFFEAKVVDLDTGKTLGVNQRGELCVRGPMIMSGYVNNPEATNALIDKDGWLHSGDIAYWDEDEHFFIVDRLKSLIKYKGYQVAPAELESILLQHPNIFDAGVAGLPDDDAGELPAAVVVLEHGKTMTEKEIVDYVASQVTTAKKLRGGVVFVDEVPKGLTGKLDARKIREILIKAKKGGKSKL
Sequence of NS3 (A3EZJ3 whole entry): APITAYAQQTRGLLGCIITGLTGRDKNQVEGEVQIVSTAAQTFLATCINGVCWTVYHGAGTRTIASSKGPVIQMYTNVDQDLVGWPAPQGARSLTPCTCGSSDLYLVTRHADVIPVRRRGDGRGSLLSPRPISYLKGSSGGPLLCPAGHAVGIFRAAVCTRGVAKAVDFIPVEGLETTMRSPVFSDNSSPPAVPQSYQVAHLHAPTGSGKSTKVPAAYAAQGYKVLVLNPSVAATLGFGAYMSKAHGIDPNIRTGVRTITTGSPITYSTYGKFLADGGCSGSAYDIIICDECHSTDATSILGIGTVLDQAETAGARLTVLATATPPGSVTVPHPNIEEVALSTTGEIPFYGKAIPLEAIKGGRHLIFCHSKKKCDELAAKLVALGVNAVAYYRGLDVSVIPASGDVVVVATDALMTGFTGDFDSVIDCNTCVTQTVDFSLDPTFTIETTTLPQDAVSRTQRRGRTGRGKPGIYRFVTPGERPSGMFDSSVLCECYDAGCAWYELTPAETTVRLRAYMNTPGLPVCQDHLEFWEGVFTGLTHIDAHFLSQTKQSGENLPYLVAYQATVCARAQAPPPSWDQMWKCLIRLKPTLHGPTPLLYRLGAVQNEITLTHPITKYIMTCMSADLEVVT
Sequence of Mitogen-activated protein kinase 10 (P53779 whole entry): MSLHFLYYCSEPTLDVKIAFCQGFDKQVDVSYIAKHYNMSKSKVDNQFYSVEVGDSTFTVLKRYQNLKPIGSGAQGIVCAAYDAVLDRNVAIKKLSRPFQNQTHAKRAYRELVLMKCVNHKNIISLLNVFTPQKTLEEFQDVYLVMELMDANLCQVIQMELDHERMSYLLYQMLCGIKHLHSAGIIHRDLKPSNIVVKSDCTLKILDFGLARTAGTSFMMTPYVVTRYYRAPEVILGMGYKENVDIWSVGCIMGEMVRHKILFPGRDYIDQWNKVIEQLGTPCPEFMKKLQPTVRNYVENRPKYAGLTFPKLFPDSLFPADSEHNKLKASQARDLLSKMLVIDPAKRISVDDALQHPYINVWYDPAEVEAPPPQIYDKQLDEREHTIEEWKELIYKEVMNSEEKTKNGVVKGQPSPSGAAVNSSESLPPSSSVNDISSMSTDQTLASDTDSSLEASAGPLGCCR
Sequence of Peroxisome proliferator-activated receptor gamma/Nuclear receptor coactivator 3 (P37231 whole entry): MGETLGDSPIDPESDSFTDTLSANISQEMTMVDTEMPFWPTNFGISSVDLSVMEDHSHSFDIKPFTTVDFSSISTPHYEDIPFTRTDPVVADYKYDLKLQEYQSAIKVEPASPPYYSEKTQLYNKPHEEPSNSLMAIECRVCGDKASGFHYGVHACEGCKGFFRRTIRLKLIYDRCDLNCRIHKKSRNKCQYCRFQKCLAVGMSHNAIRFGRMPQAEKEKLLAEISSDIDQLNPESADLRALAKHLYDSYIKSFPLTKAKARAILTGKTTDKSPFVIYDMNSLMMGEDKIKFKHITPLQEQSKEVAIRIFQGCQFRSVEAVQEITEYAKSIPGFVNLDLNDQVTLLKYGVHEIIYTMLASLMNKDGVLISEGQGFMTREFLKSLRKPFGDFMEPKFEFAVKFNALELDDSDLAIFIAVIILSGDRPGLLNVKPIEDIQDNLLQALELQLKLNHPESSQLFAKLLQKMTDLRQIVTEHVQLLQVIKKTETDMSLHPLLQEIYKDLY
Sequence of Peroxisome proliferator-activated receptor gamma/Nuclear receptor coactivator 3 (Q9Y6Q9 whole entry, further chain): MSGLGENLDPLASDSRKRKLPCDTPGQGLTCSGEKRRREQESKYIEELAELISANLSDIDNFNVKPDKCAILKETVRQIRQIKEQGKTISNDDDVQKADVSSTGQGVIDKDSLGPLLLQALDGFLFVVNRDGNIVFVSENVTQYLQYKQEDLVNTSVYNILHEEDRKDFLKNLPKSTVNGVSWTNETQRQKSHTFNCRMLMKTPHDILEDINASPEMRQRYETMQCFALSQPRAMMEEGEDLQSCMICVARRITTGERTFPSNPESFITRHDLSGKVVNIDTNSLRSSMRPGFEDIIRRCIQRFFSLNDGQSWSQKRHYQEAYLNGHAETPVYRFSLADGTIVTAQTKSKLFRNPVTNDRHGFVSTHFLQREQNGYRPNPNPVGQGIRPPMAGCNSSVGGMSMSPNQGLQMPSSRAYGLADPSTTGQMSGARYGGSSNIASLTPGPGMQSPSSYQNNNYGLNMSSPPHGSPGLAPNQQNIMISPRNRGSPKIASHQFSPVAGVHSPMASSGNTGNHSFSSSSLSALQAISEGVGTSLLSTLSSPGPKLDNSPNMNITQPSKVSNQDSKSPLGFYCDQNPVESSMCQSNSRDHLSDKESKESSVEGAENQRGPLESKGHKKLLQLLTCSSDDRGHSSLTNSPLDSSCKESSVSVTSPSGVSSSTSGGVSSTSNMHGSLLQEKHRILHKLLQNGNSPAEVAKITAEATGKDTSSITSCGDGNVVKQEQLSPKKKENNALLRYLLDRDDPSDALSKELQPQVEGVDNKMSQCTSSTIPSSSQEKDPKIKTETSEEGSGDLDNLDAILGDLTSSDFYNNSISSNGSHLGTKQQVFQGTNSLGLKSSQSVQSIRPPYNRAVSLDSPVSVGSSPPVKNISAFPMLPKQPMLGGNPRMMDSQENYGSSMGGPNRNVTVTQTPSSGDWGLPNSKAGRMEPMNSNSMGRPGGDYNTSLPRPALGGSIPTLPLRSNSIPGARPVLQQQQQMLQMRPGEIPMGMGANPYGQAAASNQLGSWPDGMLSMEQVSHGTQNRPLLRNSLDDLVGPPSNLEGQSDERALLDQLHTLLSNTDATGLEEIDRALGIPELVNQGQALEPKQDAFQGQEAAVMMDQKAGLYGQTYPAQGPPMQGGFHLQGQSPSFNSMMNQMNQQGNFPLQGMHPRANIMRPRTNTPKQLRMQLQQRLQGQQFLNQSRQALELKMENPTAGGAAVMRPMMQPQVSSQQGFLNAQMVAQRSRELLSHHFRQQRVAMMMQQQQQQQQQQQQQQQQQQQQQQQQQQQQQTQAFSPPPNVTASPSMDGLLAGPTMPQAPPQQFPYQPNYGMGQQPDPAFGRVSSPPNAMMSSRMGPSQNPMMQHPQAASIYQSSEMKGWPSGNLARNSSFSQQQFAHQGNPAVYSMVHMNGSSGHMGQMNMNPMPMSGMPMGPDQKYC
Sequence of Glyceraldehyde-3-phosphate dehydrogenase (P04406 whole entry): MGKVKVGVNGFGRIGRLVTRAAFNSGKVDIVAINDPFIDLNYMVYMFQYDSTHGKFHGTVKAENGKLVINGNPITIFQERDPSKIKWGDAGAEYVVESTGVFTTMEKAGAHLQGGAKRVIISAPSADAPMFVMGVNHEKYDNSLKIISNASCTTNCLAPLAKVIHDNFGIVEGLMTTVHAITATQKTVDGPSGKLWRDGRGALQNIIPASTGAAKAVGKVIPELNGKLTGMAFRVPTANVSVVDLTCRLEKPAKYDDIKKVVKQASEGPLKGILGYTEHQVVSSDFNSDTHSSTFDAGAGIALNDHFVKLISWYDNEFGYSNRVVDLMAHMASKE
Sequence of Heat shock cognate 71 kDa protein (P11142 whole entry): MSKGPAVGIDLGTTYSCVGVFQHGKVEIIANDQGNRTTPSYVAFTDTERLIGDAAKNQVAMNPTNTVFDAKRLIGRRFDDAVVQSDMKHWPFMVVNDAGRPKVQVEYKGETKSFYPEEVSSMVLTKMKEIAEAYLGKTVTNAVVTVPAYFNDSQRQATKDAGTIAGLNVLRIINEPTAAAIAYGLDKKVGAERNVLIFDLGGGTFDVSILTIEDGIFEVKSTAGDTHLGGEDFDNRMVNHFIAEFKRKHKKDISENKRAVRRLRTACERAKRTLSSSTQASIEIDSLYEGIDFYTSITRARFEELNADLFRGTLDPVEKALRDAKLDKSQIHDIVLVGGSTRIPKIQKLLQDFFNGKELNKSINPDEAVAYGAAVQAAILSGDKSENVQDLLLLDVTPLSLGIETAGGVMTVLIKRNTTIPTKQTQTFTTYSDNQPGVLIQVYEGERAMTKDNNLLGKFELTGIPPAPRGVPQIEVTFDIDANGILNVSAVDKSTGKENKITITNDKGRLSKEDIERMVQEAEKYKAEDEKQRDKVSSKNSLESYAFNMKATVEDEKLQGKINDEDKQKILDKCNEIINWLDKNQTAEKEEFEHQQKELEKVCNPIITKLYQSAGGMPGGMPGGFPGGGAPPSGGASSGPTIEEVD

SMILES: O=C(Nc1sc2c(c1C(=O)O)CCCCC2)c1ccccc1
- IC50 [1]: 28.4 µM (active)

SMILES: COc1ccc(C(=O)Nn2c(SCC(=O)N3CCC(C)CC3)nc3ccccc3c2=O)cc1
- EC50 [2]: < 0.2 µM (active)
- EC50 (HT-1080): > 50 µM (not active)

SMILES: CCCCCC(=O)NC(=S)Nc1ccc(Br)cc1C
- IC50 [3]: 7.66 µM (active)
- IC50 [4]: 6.11 µM (active)

SMILES: COc1ccc(/C=N/n2c(N)nc3ccccc32)cc1OC
- IC50 [5]: 16.6 µM (not active)

SMILES: CCCCCOc1ccc(/C=c2\sc3nc(=O)c(-c4ccccc4)nn3c2=O)cc1OC
- IC50 (NS3): > 36.3 µM (not active)

SMILES: O=C1NC(=S)NC(=O)C1=NNc1ccc2c(c1)OCCO2
- CC50 [6]: > 40 µM (active)

SMILES: Cc1ccccc1OCC(=O)N/N=C/c1cccc(Oc2ccc([N+](=O)[O-])cc2[N+](=O)[O-])c1
- CC50 [6]: 33.9 µM (active)

SMILES: CCOc1ccc(NC(=O)c2c(NC(=O)CN3CCN(C)CC3)sc3c2CCC3)cc1
- IC50 (Vero): 18.3 µM (active)

SMILES: Cc1cccc(CSC2=NCCN2C(=O)c2ccc(Br)o2)c1
- IC50 [3]: < 12 µM (not active)
- IC50 [4]: 12.8 µM (not active)

SMILES: O=C(CSc1nnc[nH]1)NCCOc1ccccc1
- IC50 [7]: > 100 µM (not active)
- IC50 [8]: > 100 µM (not active)
- IC50 [9]: > 100 µM (not active)
- IC50 [10]: 28.8 µM (active)

SMILES: Cc1cc(/C=C2/NC(=O)N(Cc3ccccc3F)C2=O)c(C)n1C
- EC50 [11]: > 79.4 µM (not active)
- EC50 [12]: > 79.4 µM (not active)
- EC50 [13]: > 79.4 µM (not active)

SMILES: O=C1C(/C=N/Cc2cccnc2)=C(O)c2ccccc21
- IC50 [5]: 32.1 µM (not active)

SMILES: CCOC(=O)CS(=O)(=O)c1ccc(O)cc1
- EC50 [11]: > 79.4 µM (not active)
- EC50 [12]: > 79.4 µM (not active)
- EC50 [13]: > 79.4 µM (not active)

SMILES: CCN(CC)CCC(c1cc(OC)c(OC)c(OC)c1)c1c(OC)cc(OC)c2c(-c3ccccc3)cc(=O)oc12 (centres undefined)
- IC50 (Vero): 30.8 µM (active)
- IC50 [14]: > 20 µM (inactive)

SMILES: CN1CCc2nc3sc(C(=O)C45CC6CC(CC(C6)C4)C5)c(N)c3cc2C1
- EC50 [15]: 20.5 µM (active)
- IC50 [16]: 13.8 µM (not active)
- EC50 [17]: 27.4 µM (active)
- AC50 [18]: 1.82 µM (active)

SMILES: COc1ccccc1-c1cc(C(=O)N2CCc3ccccc3C2)c2ccccc2n1
- IC50 [1]: 28.8 µM (active)
- EC50 [19]: 3.06 µM (active)

SMILES: CC1(C)Cc2c(C#N)c(NCCc3ccccc3)nc(-c3ccco3)c2CO1
- IC50 (NS3): 35.3 µM (not active)

SMILES: CN(C(=O)c1ccco1)c1nc2c(s1)CCCC2
- EC50 [2]: > 100 µM (not active)
- EC50 (HT-1080): > 50 µM (not active)
